Test results: patent US11345711B2, “8,9-dihydroimidazo[1,2-a]pyrimido[5,4-e]pyrimidin-5(6H)-ones” (IMPACT THERAPEUTICS (SHANGHAI), INC, priority 2016, dated 2022)
Like-named read-outs stand apart in the source and are kept apart here.

What was measured:
LoVo cells = assay: MTT based cell viability assay on LoVo cells; conditions: Homo sapiens, LoVo, 72 h, 3 d, read-out: IC50, growth inhibition of LoVo cells
Method in brief: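 Inhibition of LoVo proliferation was derived as IC50 from a sigmoidal dose-response fit of cell survival. Readout was MTT (0.5 mg/mL, 4 h) with absorbance at 552/630/690 nm, after 3-day treatment at 37 °C. Eight-point series from 10 μM to 0.01 μM, DMSO control, 1% DMSO final.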

Wee1 (h) = Wee1 (h) (Homo sapiens, UniProt P30291); assay: Wee1 kinase (h) detection method, [γ-33P]-ATP filter assay; format: biochemical
NCI-H1299 cells = assay: MTT based cell viability assay on NCI-H1299 cells; conditions: Homo sapiens, read-out: IC50, growth inhibition of NCI-H1299 cells
Method in brief: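 Viability read-out was MTT reduction (0.5 mg/mL, 4 h, absorbance 552/630/690 nm) after 3-day compound exposure at 37 °C of NCI-H1299 cells seeded at 1000 per well. Dilutions spanned 10 μM–0.01 μM in DMSO, final DMSO 1‰. Survival-versus-concentration curves were fitted sigmoidally to give IC50.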

Wee1 (h), sequence (P30291 whole entry): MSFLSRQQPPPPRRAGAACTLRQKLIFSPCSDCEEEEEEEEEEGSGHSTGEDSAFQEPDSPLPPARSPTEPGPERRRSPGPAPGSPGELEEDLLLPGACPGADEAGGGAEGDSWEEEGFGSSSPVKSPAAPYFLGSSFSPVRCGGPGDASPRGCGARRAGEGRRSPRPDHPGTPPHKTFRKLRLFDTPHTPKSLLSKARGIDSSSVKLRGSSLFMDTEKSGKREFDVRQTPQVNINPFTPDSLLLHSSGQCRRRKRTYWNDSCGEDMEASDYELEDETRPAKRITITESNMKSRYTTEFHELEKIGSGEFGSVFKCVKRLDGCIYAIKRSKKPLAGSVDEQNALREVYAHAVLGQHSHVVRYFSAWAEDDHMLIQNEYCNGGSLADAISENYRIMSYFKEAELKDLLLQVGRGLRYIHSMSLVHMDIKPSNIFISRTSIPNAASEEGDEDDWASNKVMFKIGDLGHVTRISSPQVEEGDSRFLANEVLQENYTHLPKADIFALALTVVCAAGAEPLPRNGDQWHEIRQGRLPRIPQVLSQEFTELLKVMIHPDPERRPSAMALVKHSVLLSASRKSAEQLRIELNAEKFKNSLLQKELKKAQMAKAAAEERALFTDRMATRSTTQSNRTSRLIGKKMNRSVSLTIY

SMILES | IC50 (LoVo cells) | Inh. (%) of Wee1 kinase enzyme activity (Wee1 (h); C 0.01 μm compound) | Inh. (%) of Wee1 kinase enzyme activity (Wee1 (h); C 0.1 μm compound) | Inh. (%) of Wee1 kinase enzyme activity (Wee1 (h); C 1 μm compound) | IC50 (NCI-H1299 cells; NCI-H1299 cells) | IC50 (NCI-H1299 cells; NCI-H1299, NCI-H1299 cells)
COc1cc(Nc2ncc3c(n2)N2CCN=C2N(c2c(Cl)cccc2Cl)C3=O)ccc1N1CCN(C)CC1 [Example 146, 6-(2,6-Dichlorophenyl)-2-((3-methoxy-4-(4-methylpiperazin-1-yl)phenyl)amino)-8,9-dihydroimidazo[1,2-a]pyrimido[5,4-e]pyrimidin-5(6H)-one] | 83.3 nM | 9% | 85% | 95% | 250 nM | 
CN1CCN(c2c(F)cc(Nc3ncc4c(n3)N3CCN=C3N(c3c(Cl)cccc3Cl)C4=O)cc2Cl)CC1 [Example 147, 6-(2,6-Dichlorophenyl)-2-((3-chloro-5-fluoro-4-(4-methylpiperazin-1-yl)phenyl)amino)-8,9-dihydroimidazo[1,2-a]pyrimido[5,4-e]pyrimidin-5(6H)-one] | 91.1 nM | 42% | 86% | 96% |  | 209 nM
COc1cc(Nc2ncc3c(n2)N2CCN=C2N(c2c(Cl)cccc2Cl)C3=O)cc(F)c1N1CCN(C)CC1 [Example 149, 6-(2,6-Dichlorophenyl)-2-((3-fluoro-5-methoxy-4-(4-methylpiperazin-1-yl)phenyl)amino)-8,9-dihydroimidazo[1,2-a]pyrimido[5,4-e]pyrimidin-5(6H)-one] | 59.4 nM | 22% | 72% | 94% |  | 113 nM
CN1CCN(c2c(Cl)cc(Nc3ncc4c(n3)N3CCN=C3N(c3c(Cl)cccc3Cl)C4=O)cc2Cl)CC1 [Example 150, 6-(2,6-Dichlorophenyl)-2-((3,5-dichloro-4-(4-methylpiperazin-1-yl)phenyl)amino)-8,9-dihydroimidazo[1,2-a]pyrimido[5,4-e]pyrimidin-5(6H)-one] | 116 nM | 20% | 81% | 93% |  | 347 nM
CN1CCN(c2c(Cl)cc(Nc3ncc4c(n3)N3CCN=C3N(c3c(Cl)cccc3Cl)C4=O)cc2C(F)(F)F)CC1 [Example 152, 6-(2,6-Dichlorophenyl)-2-((3-chloro-4-(4-methylpiperazin-1-yl)-5-(trifluoromethyl)phenyl)amino)-8,9-dihydroimidazo[1,2-a]pyrimido[5,4-e]pyrimidin-5(6H)-one] | 139 nM |  |  | 88% |  | 1950 nM
COc1cc(Nc2ncc3c(n2)N2CCN=C2N(c2c(Cl)cccc2Cl)C3=O)cc(Cl)c1N1CCN(C)CC1 [Example 153, 6-(2,6-Dichlorophenyl)-2-((3-chloro-5-methoxy-4-(4-methylpiperazin-1-yl)phenyl)amino)-8,9-dihydroimidazo[1,2-a]pyrimido[5,4-e]pyrimidin-5(6H)-one] | 56.3 nM | 30% | 84% | 94% |  | 235 nM
CN1CCN(c2c(F)cc(Nc3ncc4c(n3)N3CCN=C3N(c3c(Cl)cccc3Cl)C4=O)cc2Br)CC1 [Example 154, 6-(2,6-Dichlorophenyl)-2-((3-bromo-5-fluoro-4-(4-methylpiperazin-1-yl)phenyl)amino)-8,9-dihydroimidazo[1,2-a]pyrimido[5,4-e]pyrimidin-5(6H)-one] | 63.3 nM | 25% | 72% | 96% |  | 174 nM
COc1cc(Nc2ncc3c(n2)N2CCN=C2N(c2c(Cl)cccc2Cl)C3=O)cc(Br)c1N1CCN(C)CC1 [Example 157, 6-(2,6-Dichlorophenyl)-2-((3-bromo-5-methoxy-4-(4-methylpiperazin-1-yl)phenyl)amino)-8,9-dihydroimidazo[1,2-a]pyrimido[5,4-e]pyrimidin-5(6H)-one] | 38.6 nM |  |  | 91% | 222 nM | 
Cc1cc(Nc2ncc3c(n2)N2CCN=C2N(c2c(Cl)cccc2Br)C3=O)cc(F)c1N1CCC(N(C)C)CC1 [Example 160, 6-(2-Bromo-6-chlorophenyl)-2-((4-(4-(dimethylamino)piperidin-1-yl)-3-fluoro-5-methylphenyl)amino)-8,9-dihydroimidazo[1,2-a]pyrimido[5,4-e]pyrimidin-5(6H)-one] | 27.3 nM | 31% | 85% | 98% |  | 62.8 nM

Further lines, results first:

IC50 (LoVo cells) | Inh. (%) of Wee1 kinase enzyme activity (Wee1 (h); C 0.01 μm compound) | Inh. (%) of Wee1 kinase enzyme activity (Wee1 (h); C 0.1 μm compound) | Inh. (%) of Wee1 kinase enzyme activity (Wee1 (h); C 1 μm compound) | IC50 (NCI-H1299 cells; NCI-H1299 cells) | IC50 (NCI-H1299 cells; NCI-H1299, NCI-H1299 cells) | SMILES
39.8 nM | 40% | 90% | 94% |  | 123 nM | Cc1cc(Nc2ncc3c(n2)N2CCN=C2N(c2c(Cl)cccc2Cl)C3=O)cc(F)c1N1CCN(C)CC1 [Example 148, 6-(2,6-Dichlorophenyl)-2-((3-fluoro-5-methyl-4-(4-methylpiperazin-1-yl)phenyl)amino)-8,9-dihydroimidazo[1,2-a]pyrimido[5,4-e]pyrimidin-5(6H)-one]
30.8 nM | 42% | 98% | 97% |  | 175 nM | Cc1cc(Nc2ncc3c(n2)N2CCN=C2N(c2c(Cl)cccc2Cl)C3=O)cc(Cl)c1N1CCN(C)CC1 [Example 151, 6-(2,6-Dichlorophenyl)-2-((3-chloro-5-methyl-4-(4-methylpiperazin-1-yl)phenyl)amino)-8,9-dihydroimidazo[1,2-a]pyrimido[5,4-e]pyrimidin-5(6H)-one]
74.1 nM | 16% | 66% | 94% |  | 109 nM | CN1CCN(c2c(Cl)cc(Nc3ncc4c(n3)N3CCN=C3N(c3c(Cl)cccc3Cl)C4=O)cc2Br)CC1 [Example 155, 6-(2,6-Dichlorophenyl)-2-((3-bromo-5-chloro-4-(4-methylpiperazin-1-yl)phenyl)amino)-8,9-dihydroimidazo[1,2-a]pyrimido[5,4-e]pyrimidin-5(6H)-one]
62.7 nM | 19% | 81% | 96% |  | 150 nM | Cc1cc(Nc2ncc3c(n2)N2CCN=C2N(c2c(Cl)cccc2Cl)C3=O)cc(Br)c1N1CCN(C)CC1 [Example 156, 6-(2,6-Dichlorophenyl)-2-((3-bromo-5-methyl-4-(4-methylpiperazin-1-yl)phenyl)amino)-8,9-dihydroimidazo[1,2-a]pyrimido[5,4-e]pyrimidin-5(6H)-one]
58.5 nM | 27% | 84% | 95% |  | 105 nM | Cc1cc(Nc2ncc3c(n2)N2CCN=C2N(c2c(Cl)cccc2Cl)C3=O)cc(C)c1N1CCN(C)CC1 [Example 158, 6-(2,6-Dichlorophenyl)-2-((3,5-dimethyl-4-(4-methylpiperazin-1-yl)phenyl)amino)-8,9-dihydroimidazo[1,2-a]pyrimido[5,4-e]pyrimidin-5(6H)-one]
